Test results published in article PMC11303713, “Allosteric inhibition of CFTR gating by CFTRinh-172 binding in the pore” (Nature Communications, 2024).
Where “and” joins values, the source holds several entries; their conditions need not be identical. Identical values can stand only once. Like-named read-outs stand apart in the source and are kept apart here.

What was measured:
Test in all cases: Inside-out patch-clamp inhibition of CFTR current by Inh-172
Format in all cases: cell-based
[1] = target: T1, p-hTM8-p-CFTR (pig CFTR, three TM8 amino acids replaced with human's) (Sus scrofa, UniProt Q6PQZ2, G926T/L930M/L932F)
T1 construct: expressed in transfected cells; host or cells: CHO cells, pcDNA plasmid
Protocol: (§1) CHO cells were grown at 37 °C in Dulbecco’s modified Eagle’s medium supplemented with 10% (vol/vol) fetal bovine serum (Sigma-Aldrich, St. Louis, MO). pcDNA plasmids carrying the desired CFTR construct were transfected to CHO cells using PolyFect transfection reagent (Qiagen, Hilden, Germany) together with green fluorescence protein (GFP) cDNA (pEGFP-C3, Takara Bio, Shiga, Japan) that helps identify expression of CFTR. Cells were first incubated with the transfection reagents at 37 °C for 6-12 hours on sterile glass chips in 35-mm tissue culture dishes before transferred to 27 °C for incubation for 2–7 days. Primers for mutations were ordered from Integrated DNA Technologies (Coralville, IA) and were summarized in Supplementary Data. All CFTR mutants were prepared with QuikChange XL kit (Agilent, Santa Clara, CA) and sequenced at the DNA Core facility at University of Missouri-Columbia.
(§2) Patch-clamp pipettes were made from borosilicate capillary glass using a two-stage vertical puller (PP-81; Narishige, Amityville, NY). The pipette tips were fire polished with a homemade microforge to yield a pipette resistance of 2–5 MΩ when filled with a pipette solution containing (in mM): 140 NMDG-Cl (N-methyl-D-glucamine-chloride), 5 CaCl2, 2 MgCl2, and 10 HEPES, pH 7.4. For recordings, transfected cells on glass chips were transferred into a continuously perfused chamber on the stage of an inverted microscope (IX51; Olympus, Tokyo, Japan) with the perfusing solution containing (in mM): 150 NMDG-Cl, 2 MgCl2, 10 EGTA, 8 Tris, and 10 HEPES, pH 7.4. The membrane patch was excised to an inside-out configuration with a seal resistance >40 GΩ. CFTR currents were recorded with an amplifier (EPC9; HEKA, Holliston, MA), filtered through an eight-pole Bessel filter (LPF-8; Warner Instruments, Hamden, CT) at 100 Hz and digitized to a computer at a sampling rate of 500 Hz with Pulse software (version 8.53; HEKA). The membrane potential was held at −30 mV. Solution exchange was achieved by a fast solution change system (SF-77B; Warner Instruments). Inh-172 was obtained from the CFTR Chemical Compound Program supported by the Cystic Fibrosis Foundation. All experiments were performed at room temperature.
(§3) The steady state mean currents were measured in the Igor Pro software (version 8.0; WaveMetrics). The mean baseline currents were subtracted from the steady state mean currents before the data were used to determine the degrees of inhibition. The degrees of inhibition by CFTR inhibitor 172 were calculated based on the equation:1 %inhibition=1−IInh−172/I0X100% where I0 and Iinh−172 represent uninhibited and inhibited currents, respectively. The IC50 and Hill coefficients were obtained by fitting percent inhibition as a function of [Inh-172] with the Hill equation:2 %inhibition=base+(max−base)/1+xhalf/x^rate where max and base represent the […] percent inhibition by Inh-172, x represents the concentration of Inh-172, and the rate is the Hill coefficient. The estimated IC50 (xhalf) and Hill coefficients are listed in Table 1 as mean ± standard deviation. Each patch-clamp recording was made from a separate cell.

[2] = target: T2, h-pTM8-h-CFTR (human CFTR, three TM8 amino acids replaced with pig's) (Homo sapiens, UniProt P13569, F931L/M929L/T925G); conditions: for inhibition at 1 µM: 1000 nM Inh-172; for inhibition at 5 µM: 5000 nM Inh-172; for inhibition at 10 µM: 10000 nM Inh-172
T2 construct: expressed in transfected cells; host or cells: CHO cells, pcDNA plasmid
Protocol: as §1, §2, §3

W1145L-CFTR = target: T3, W1145L-CFTR (Homo sapiens, UniProt P13569, W1145L)
T3 construct: expressed in transfected cells; host or cells: CHO cells, pcDNA plasmid
Protocol: as §1, §2, §3

W1145Y-CFTR = target: T4, W1145Y-CFTR (Homo sapiens, UniProt P13569, W1145Y); conditions: for inhibition at 0.5 µM: 500 nM Inh-172; for inhibition at 5 µM: 5000 nM Inh-172; for inhibition at 10 µM: 10000 nM Inh-172
T4 construct: expressed in transfected cells; host or cells: CHO cells, pcDNA plasmid
Protocol: as §1, §2, §3

K95A-CFTR = target: T5, K95A-CFTR (Homo sapiens, UniProt P13569, K95A)
T5 construct: expressed in transfected cells; host or cells: CHO cells, pcDNA plasmid
Protocol: as §1, §2, §3

[3] = 100 nM Inh-172, read-out: percent inhibition of current, Mean
[4] = 100 nM Inh-172, read-out: percent inhibition of current, individual cell
[5] = 500 nM Inh-172, read-out: percent inhibition of current, Mean
[6] = 1000 nM Inh-172, read-out: percent inhibition of current, Mean
[7] = 1000 nM Inh-172, read-out: percent inhibition of current, individual cell
[8] = 10000 nM Inh-172, read-out: percent inhibition of current, Mean
[9] = 10000 nM Inh-172, read-out: percent inhibition of current, individual cell
[10] = read-out: percent inhibition of current, Mean
[11] = read-out: percent inhibition of current, individual cell
[12] = 5000 nM Inh-172, read-out: percent inhibition of current, Mean
[13] = 5000 nM Inh-172, read-out: percent inhibition of current, individual cell

T3 sequence (P13569 whole entry W1145L): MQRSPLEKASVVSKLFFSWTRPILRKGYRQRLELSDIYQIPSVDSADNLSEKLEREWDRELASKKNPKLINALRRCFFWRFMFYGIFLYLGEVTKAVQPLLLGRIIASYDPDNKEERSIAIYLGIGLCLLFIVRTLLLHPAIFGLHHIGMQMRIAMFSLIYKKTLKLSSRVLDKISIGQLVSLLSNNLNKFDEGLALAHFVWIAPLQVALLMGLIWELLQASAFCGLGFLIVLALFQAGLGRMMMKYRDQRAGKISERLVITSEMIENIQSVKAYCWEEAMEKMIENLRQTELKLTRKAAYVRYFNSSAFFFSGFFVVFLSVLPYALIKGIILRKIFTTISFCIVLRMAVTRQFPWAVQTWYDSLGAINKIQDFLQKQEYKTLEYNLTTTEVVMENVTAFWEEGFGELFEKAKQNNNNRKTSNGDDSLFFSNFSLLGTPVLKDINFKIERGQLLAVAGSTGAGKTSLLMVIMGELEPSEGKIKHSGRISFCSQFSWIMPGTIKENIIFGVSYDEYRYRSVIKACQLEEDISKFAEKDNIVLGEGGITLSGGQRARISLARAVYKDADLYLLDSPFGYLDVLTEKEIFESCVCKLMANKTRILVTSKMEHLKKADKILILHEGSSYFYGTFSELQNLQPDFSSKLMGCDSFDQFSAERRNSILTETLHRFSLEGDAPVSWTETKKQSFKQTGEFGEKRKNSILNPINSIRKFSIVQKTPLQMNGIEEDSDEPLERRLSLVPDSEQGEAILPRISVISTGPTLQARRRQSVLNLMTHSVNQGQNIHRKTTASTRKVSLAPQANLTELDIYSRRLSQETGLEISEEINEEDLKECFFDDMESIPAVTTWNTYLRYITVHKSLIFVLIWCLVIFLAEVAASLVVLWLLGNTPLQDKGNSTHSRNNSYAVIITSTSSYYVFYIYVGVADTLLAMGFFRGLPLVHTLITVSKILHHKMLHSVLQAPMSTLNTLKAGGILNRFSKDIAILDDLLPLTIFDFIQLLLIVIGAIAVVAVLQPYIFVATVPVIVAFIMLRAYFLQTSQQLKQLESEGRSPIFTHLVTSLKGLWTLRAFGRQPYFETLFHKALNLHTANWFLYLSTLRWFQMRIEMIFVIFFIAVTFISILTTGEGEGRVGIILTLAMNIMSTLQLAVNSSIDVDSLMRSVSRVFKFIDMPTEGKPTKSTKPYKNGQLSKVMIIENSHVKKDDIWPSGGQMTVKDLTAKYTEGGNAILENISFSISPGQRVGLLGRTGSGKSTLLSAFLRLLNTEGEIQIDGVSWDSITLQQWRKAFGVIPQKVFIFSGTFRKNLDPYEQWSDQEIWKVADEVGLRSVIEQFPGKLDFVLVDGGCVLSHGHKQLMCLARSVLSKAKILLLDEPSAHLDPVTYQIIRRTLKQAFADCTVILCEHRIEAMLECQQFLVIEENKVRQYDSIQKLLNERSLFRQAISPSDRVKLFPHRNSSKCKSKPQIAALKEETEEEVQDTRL
T5 sequence (P13569 whole entry K95A): as the sequence (P13569 whole entry W1145L) above, with K95A, L1145W counted along it
T1 sequence (Q6PQZ2 whole entry G926T/L930M/L932F): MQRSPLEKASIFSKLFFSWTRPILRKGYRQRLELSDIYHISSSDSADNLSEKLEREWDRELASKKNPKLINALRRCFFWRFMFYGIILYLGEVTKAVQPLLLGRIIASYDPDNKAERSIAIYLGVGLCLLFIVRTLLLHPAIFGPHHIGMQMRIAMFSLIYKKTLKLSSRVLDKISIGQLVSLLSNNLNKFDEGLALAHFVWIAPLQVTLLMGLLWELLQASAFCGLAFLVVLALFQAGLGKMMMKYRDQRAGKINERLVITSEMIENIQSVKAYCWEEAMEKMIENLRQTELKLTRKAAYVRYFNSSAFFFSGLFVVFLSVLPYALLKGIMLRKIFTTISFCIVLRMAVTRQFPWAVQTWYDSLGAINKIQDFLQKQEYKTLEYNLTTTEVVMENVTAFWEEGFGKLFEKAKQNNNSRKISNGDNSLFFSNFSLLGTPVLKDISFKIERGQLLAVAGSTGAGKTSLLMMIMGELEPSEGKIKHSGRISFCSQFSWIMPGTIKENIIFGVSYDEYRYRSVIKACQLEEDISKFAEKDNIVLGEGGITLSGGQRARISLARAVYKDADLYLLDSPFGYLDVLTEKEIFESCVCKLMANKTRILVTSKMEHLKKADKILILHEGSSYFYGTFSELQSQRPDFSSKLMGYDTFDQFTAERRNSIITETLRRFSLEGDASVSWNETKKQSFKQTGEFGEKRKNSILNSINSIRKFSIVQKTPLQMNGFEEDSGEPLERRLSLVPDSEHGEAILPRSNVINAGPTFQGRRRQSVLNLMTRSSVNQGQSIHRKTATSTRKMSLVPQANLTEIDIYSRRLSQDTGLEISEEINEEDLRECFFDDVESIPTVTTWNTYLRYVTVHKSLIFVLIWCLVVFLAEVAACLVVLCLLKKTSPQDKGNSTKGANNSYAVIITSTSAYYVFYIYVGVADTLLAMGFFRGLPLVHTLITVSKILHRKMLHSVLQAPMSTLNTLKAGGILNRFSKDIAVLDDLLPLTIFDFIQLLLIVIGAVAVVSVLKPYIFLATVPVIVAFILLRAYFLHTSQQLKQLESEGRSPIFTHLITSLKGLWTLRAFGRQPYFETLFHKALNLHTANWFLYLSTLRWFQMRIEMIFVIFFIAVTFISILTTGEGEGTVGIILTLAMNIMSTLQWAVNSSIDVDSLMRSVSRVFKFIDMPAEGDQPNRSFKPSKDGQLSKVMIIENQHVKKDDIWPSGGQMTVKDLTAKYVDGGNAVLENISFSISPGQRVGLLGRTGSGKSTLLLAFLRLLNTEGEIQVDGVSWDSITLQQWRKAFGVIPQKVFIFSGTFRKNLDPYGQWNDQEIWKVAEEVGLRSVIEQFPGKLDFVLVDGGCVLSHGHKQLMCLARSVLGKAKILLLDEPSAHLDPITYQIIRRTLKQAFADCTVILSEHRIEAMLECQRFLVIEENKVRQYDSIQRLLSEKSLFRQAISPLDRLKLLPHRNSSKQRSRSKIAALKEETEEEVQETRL
T2 sequence (P13569 whole entry T925G/M929L/F931L): as the sequence (P13569 whole entry W1145L) above, with T925G, M929L, F931L, L1145W counted along it
T4 sequence (P13569 whole entry W1145Y): as the sequence (P13569 whole entry W1145L) above, with L1145Y counted along it

O=C(O)c1ccc(/C=C2\SC(=S)N(c3cccc(C(F)(F)F)c3)C2=O)cc1 [Inh-172, CFTRinh-172]
percent inhibition of current, individual cell ([1]; 25 nM Inh-172): 0 and 3
inhibition at 0.025 µM ([1]; 25 nM Inh-172, read-out: percent inhibition of current, Mean): 1%
percent inhibition of current, individual cell ([1]; 100 nM Inh-172): 18 and 20 and 14 and 17
inhibition at 0.1 µM [1, 3]: 16.4%
inhibition at 0.1 µM [1, 4]: 13%
percent inhibition of current, individual cell ([1]; 500 nM Inh-172): 63 and 60 and 56 and 33 and 23
inhibition at 0.5 µM [1, 5]: 47%
percent inhibition of current, individual cell ([1]; 1000 nM Inh-172): 53 and 44 and 63
inhibition at 1 µM [1, 6]: 54%
inhibition at 1 µM [1, 7]: 57%
percent inhibition of current, individual cell ([1]; 10000 nM Inh-172): 82 and 85
inhibition at 10 µM [1, 8]: 89%
inhibition at 10 µM [1, 9]: 100%
Hill Coefficient ([1]; p-hTM8-p): 0.84 ± 0.10
IC50 ([1]; p-hTM8-p): 0.72 ± 0.09 µM
inhibition at 0.1 µM [2, 3]: 18.4%
inhibition at 0.5 µM [2, 5]: 46.3%
inhibition at 1 µM [2, 10]: 58.5%
inhibition at 1 µM [2, 11]: 68%
inhibition at 5 µM [2, 10]: 83.3%
inhibition at 5 µM [2, 11]: 89%
inhibition at 10 µM [2, 10]: 91%
inhibition at 10 µM [2, 11]: 93%
Hill Coefficient ([2]; h-pTM8-h): 0.80 ± 0.02
IC50 ([2]; h-pTM8-h): 0.64 ± 0.02 µM
percent inhibition of current, individual cell (W1145L-CFTR; 100 nM Inh-172): 11
inhibition at 0.1 µM (W1145L-CFTR; [3]): 16%
inhibition at 0.1 µM (W1145L-CFTR; [4]): 21%
percent inhibition of current, individual cell (W1145L-CFTR; 500 nM Inh-172): 42 and 48
inhibition at 0.5 µM (W1145L-CFTR; [5]): 44.3%
inhibition at 0.5 µM (W1145L-CFTR; 500 nM Inh-172, read-out: percent inhibition of current, individual cell): 43%
percent inhibition of current, individual cell (W1145L-CFTR; 1000 nM Inh-172): 59 and 67
inhibition at 1 µM (W1145L-CFTR; [6]): 62.3%
inhibition at 1 µM (W1145L-CFTR; [7]): 61%
percent inhibition of current, individual cell (W1145L-CFTR; 5000 nM Inh-172): 83 and 87 and 70
inhibition at 5 µM (W1145L-CFTR; [12]): 81.3%
inhibition at 5 µM (W1145L-CFTR; [13]): 85%
percent inhibition of current, individual cell (W1145L-CFTR; 10000 nM Inh-172): 91 and 83
inhibition at 10 µM (W1145L-CFTR; [8]): 89.5%
inhibition at 10 µM (W1145L-CFTR; [9]): 92%
Hill Coefficient (W1145L-CFTR; W1145L): 0.82 ± 0.07
IC50 (W1145L-CFTR; W1145L): 0.64 ± 0.06 µM
inhibition at 0.1 µM (W1145Y-CFTR; [3]): 10.8%
inhibition at 0.5 µM (W1145Y-CFTR; [10]): 38%
inhibition at 0.5 µM (W1145Y-CFTR; [11]): 29%
inhibition at 1 µM (W1145Y-CFTR; [6]): 54%
inhibition at 5 µM (W1145Y-CFTR; [10]): 82%
inhibition at 5 µM (W1145Y-CFTR; [11]): 77%
inhibition at 10 µM (W1145Y-CFTR; [10]): 91.4%
inhibition at 10 µM (W1145Y-CFTR; [11]): 88%
Hill Coefficient (W1145Y-CFTR; W1145Y): 0.92 ± 0.03
IC50 (W1145Y-CFTR; W1145Y): 0.87 ± 0.03 µM
percent inhibition of current, individual cell (K95A-CFTR; 100 nM Inh-172): 10.0 and 13.0 and 19.0 and 9.0 and 7.0 and 15.0
inhibition at 0.1 µM (K95A-CFTR; [3]): 12.2%
inhibition at 0.5 µM (K95A-CFTR; 0.5 µM Inh-172, read-out: K95A-CFTR current inhibited): ~40%
percent inhibition of current, individual cell (K95A-CFTR; 500 nM Inh-172): 23.0 and 38.0 and 46.0 and 31.0 and 29.0 and 42.0
inhibition at 0.5 µM (K95A-CFTR; [5]): 34.8%
percent inhibition of current, individual cell (K95A-CFTR; 1000 nM Inh-172): 58.0 and 62.0 and 47.0 and 59.0
inhibition at 1 µM (K95A-CFTR; [6]): 55.8%
inhibition at 1 µM (K95A-CFTR; [7]): 51%
percent inhibition of current, individual cell (K95A-CFTR; 5000 nM Inh-172): 88.0 and 84.0 and 81.0 and 85.0
inhibition at 5 µM (K95A-CFTR; [12]): 84.2%
inhibition at 5 µM (K95A-CFTR; [13]): 78%
percent inhibition of current, individual cell (K95A-CFTR; 10000 nM Inh-172): 95.0 and 94.0 and 93.0 and 90.0
inhibition at 10 µM (K95A-CFTR; [8]): 92.3%
inhibition at 10 µM (K95A-CFTR; [9]): 89%
Hill Coefficient (K95A-CFTR; K95A): 0.98 ± 0.05
IC50 (K95A-CFTR; K95A): 0.85 ± 0.05 µM
IC50 (K95A-CFTR; K95A, earlier manuscript version, peer review file): 0.852 µM
increase of IC50 by K95A mutation vs WT (K95A-CFTR; cho cells inside-out patch): 10 fold
